“And” between values parts separate entries of the source, which are not always exact repeats. Identical values can stand only once.
Tests used:
Conditions in all cases: alone, foliar, approximately 21 days
CENMA = test: Example V: postemergence herbicidal activity of mixtures in forage crops, CENMA; type: in vivo, Centaurea maculosa (spotted knapweed)
In short: (§1)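 Plants grown from seed or root cuttings in MetroMix 306 (pH 6.0–6.8) for 14–60 days in greenhouse, ~14 h photoperiod, ~28/24 °C day/night. Foliar spray of two-way mixtures of the second herbicide or experimental compounds applied postemergence.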

CASOB = test: Example V: postemergence herbicidal activity of mixtures in forage crops (greenhouse), CASOB; type: in vivo, Cassia obtusifolia (sicklepod)
In short: as §1

CIRAR = test: Example V: postemergence herbicidal activity of mixtures in forage crops, CIRAR; type: in vivo, Cirsium arvense (Canada thistle)
Experimental: Seeds or root cuttings of the desired test plant species were planted in Sun Gro MetroMix® 306 planting mixture, which typically has a pH of 6.0 to 6.8 and an organic matter content of about 30 percent, in plastic pots with a surface area of 126.6 square centimeters (cm^2). […] The plants were grown for 14-60 days in a greenhouse with an approximate 14 hour photoperiod which was maintained at approximately 28° C. during the day and 24° C. during the night.
Spray solutions of the second herbicide or experimental compound mixtures were prepared by adding the stock solutions to the appropriate amount of dilution solution to form 12 mL spray solution with active ingredients in two-way combinations.

SMILES: COc1c(Cl)ccc(-c2nc(C(=O)OCc3ccccc3)c(Cl)c(N)c2F)c1F [Compound A Benzyl Ester, benzyl ester of 4-amino-3-chloro-5-fluoro-6-(4-chloro-2-fluoro-3-methoxy-phenyl)pyridine-2-carboxylic acid]
- CENMA Obs (observed value) (CENMA; 4.4 gae/ha): 70%
- CENMA Obs (observed value) (CENMA; 8.8 gae/ha): 85%
- CENMA Obs (observed value) (CENMA; 17.5 gae/ha): 95%
- CASOB Obs (observed value) (CASOB; 1.1 gae/ha): 28%
- CASOB Obs (observed value) (CASOB; 2.2 gae/ha): 33%
- CASOB Obs (observed value) (CASOB; 4.4 gae/ha): 38%
- CIRAR Obs (observed value) (CIRAR; 2.2 gae/ha): 25%
- CIRAR Obs (observed value) (CIRAR; 4.4 gae/ha): 30% and 25%
- CIRAR Obs (observed value) (CIRAR; 8.8 gae/ha): 30%
- CIRAR Obs (observed value) (CIRAR; 17.5 gae/ha): 30%
